Entries after “also recorded” stand apart in the source; their conditions may differ.
Experiments:
female mosquitoes = assay: whole plant or invertebrate; details: 2 h
Aedes aegypti = assay: landing assay; type: in vivo; details: mesh treated with 1% in acetone, FIG. 2
Description: Behavior assays were developed to aid in the evaluation of compounds and compositions of the present invention. These assays include the landing assay and the netsphere assay. These assays were utilized to determine the effectiveness of said compounds and compositions with regard to attracting or repelling mosquitoes of the species Aedes aegypti. Due to the highly conserved nature of the carbon dioxide receptor across the order Diptera, the results obtained for Aedes aegypti are likely to be intuitive with regard to other members of the mosquito family Culicidae as well as with regard to other dipteran family members.
The landing assay is an assay used to test for attraction toward human skin. A human gloved hand with an opening cutout protected by 2 layers of mesh was inserted into a 12×12×12 inch cage of female mosquitoes. The first layer of mesh was used to protect the human from chemical contact as well as mosquito contact. A second layer of mesh was treated with a chemical compound or composition that had been dissolved at a concentration of 1% in acetone and allowed to dry on said mesh for three minutes. This second layer of mesh was placed on top of the first mesh layer. The two mesh layers were separated by outer magnetic strips to hold the layers in place on the glove. This experimental design allows the test subjects, starved female mosquitoes, to be exposed to human skin odors as well as the compound or composition concurrently. The cage contained 30 female and 3 male mosquitoes. The landing of mosquitoes on the treated surface was videotaped over a 5 minute time course and the number of landings during that time period was recorded. Mesh treated with acetone alone was used as a negative control. This experiment was done in triplicate for each compound or composition tested. The results from one such experiment are pictured in FIG. 2.

Aedes aegypti mosquitoes = assay: netsphere assay; type: in vivo; details: baited BG-Sentinel trap, overnight collection; FIG. 3
Description: The netsphere assay was conducted in a semi-field containment area. The containment area was 1,000 square feet in size and environmental cues such as temperature, humidity, lighting and airflow were controlled to replicate conditions that Aedes aegypti mosquitoes would encounter in the wild. The containment area was conditioned for 2 hours prior to experimentation to allow for equalization of environmental conditions. Fifty female and five male mosquitoes were then released into the chamber and given one hour to acclimate to the environment. Following this, a BG-Sentinel trap (Biogents AG, Regensburg, Germany) was baited with either cyclopentanone, 2-pentanone or 2,4-lutidine and placed in the chamber in the presence of a non-baited BG-Sentinel (as a negative control for trap attraction). The collection was allowed to proceed overnight during which lighting conditions in the chamber were set to mimic those of starlight. The following day, mosquitoes caught in the trap were frozen at −20° C. and counted. These counts were compared to control experiments where CO2 from a tank, at a flow rate of 250 ml/min, was used as bait.

larvae = assay: larvicidal activity assay; type: in vivo; details: 24 h
Description: A 6-well plate (Corning Life Sciences, Tewksbury, Mass.) is used to test a compound's larvicidal activity. […] After a 24 hour exposure, the number of dead larvae are counted and recorded.
The results are presented in Table 17 as % lethality (the number of dead larvae divided by the total number of larvae).

cpA neurons = assay: extracellular single-sensillum electrophysiology: activation of cpA neuronal activity
bed bugs = assay: bed bug luring assay; type: in vivo; details: cottonball with 100 microliters solution, total 100 mg compound(s), 10 bed bugs, overnight
Description: Assays were conducted to measure the ability of compounds and compound combinations to attract bed bugs. A testing arena habitat comprising a small plastic container was placed inside of a larger, secondary container. The top half inch was removed from two bathroom sized solo cups and each cup was placed on opposite sides of the testing arena habitat, one inch away from the wall. Each outer part of the cup was textured using sandpaper, as bed bugs cannot climb smooth surfaces. A paper towel was used to line the floor of the testing arena habitat. The top, removed portion of one of the solo cups was placed mouth side down in the center of the arena. In one of the cups, a cottonball was placed and treated with 100 microliters of compound or compound combination solution [comprising a total of 100 mg of compound(s).] 10 bed bugs were placed within the center cut off cup top and the testing arena habitat was covered and placed within a dark, climate controlled room overnight. The next day, the number of bed bugs that crawled into the baited cup were recorded and the % attractancy was calculated as the percentage of bugs that crawled into the baited cup as compared to the total number of bed bugs. In the Table, “Att” refers to attractancy and “Cmpd” refers to compound.

CCCC(C)=O [OLI0018, 2-pentanone]
mortality at 200 µg/mL (female mosquitoes; read-out: % mortality with 0.2 mg/ml): 0%
mortality at 2000 µg/mL (female mosquitoes; read-out: % mortality with 2 mg/ml): 0%
number of landings (Aedes aegypti; 5 minute time course): 37 landings
behaviour in landing assay (lure or repellent) (Aedes aegypti): act as lures
behaviour in netsphere assay (attractant or repellent) (Aedes aegypti mosquitoes): act as attractants; also recorded: attract mosquitoes
pest or weed control at 100 ppm (larvae; read-out: % Lethality at 100 ppm): 0%
pest or weed control at 0.25 % (larvae; read-out: % Lethality with 0.25% compound conc.): 0%
Class (cpA neurons; Table 6, single compounds, increase over baseline cpA neuronal activity): Moderate Activator (Moderate activators yield an increase in neuronal activity that is between 40 and 60 spk/sec over baseline neuronal activity)
Comp A Class (cpA neurons; Table 9, component A tested individually): Mod
Comp B Class (cpA neurons; Table 9, component B tested individually): Mod
Class B (activator class of the individual component) (cpA neurons; Table 15, single component alone, Mod Actv): Mod
% Att (bed bug attractancy) (bed bugs): 30%

Reference: patent publication US20150216182A1, “COMPOSITIONS AND METHODS OF THE ATTRACTION AND REPULSION OF INSECTS” (Olfactor Laboratories, Inc., priority 2012, published 2015)
